The text below walks through data of patent US8084644B2, “Iminopropene compound and use thereof” (Sumitomo Chemical Company, Limited, priority 2005, dated 2011).

One data set concerns Spodoptela litura. Kind of data set: Test Example 13: cabbage test on common cutworm. It is filed as in vivo. Particulars: 50 ppm, fourth-instar, after four days. As for the experimental part:
0.1 ml of the mixture of xylene and N,N-dimethylformamide (xylene:N,N-dimethylformamide=1:1) and 0.04 ml of the mixture of xylene and Sorpol 3005X (TOHO Chemical Industry Co. LTD) (xylene:Sorpol 3005X=1:9) were added to 16 mg of the each test compound. The mixture was diluted with water as that the active ingredient concentration came to prescribed concentration. Furthermore, spreader (Dain: Takeda Pharmaceutical Co. […] The test solution was applied to a cabbage (Brassicae oleracea) in a fifth-leaf stage at a rate 20 ml per pot. After air-drying, ten fourth-instar worm of common cutworm (Spodoptela litura) was placed onto the cabbage, and the cabbage was covered with a cup having holes. After four days, the number of dead worm was examined.
Take `Cc1ccc(SC=CC(=Nc2ccccc2)Sc2ccccc2)cc1` [(130), Phenyl 3-(4-methylphenylthio)-N-(phenyl)thioacrylimidate]: the “index number (mortality)” value is on record as 3 (mortality 80 to 99%).

Tested on in a further data set: not given
Test: not given
Conditions: not given
As a reminder, the melting point is the temperature of the solid-liquid transition. For the molecule `Cc1cc(C)nc(SC=CC(=Nc2ccccc2)Oc2ccccc2)n1` [(124), Phenyl 3-(4,6-dimethyl-2-pyrimidinylthio)-N-phenylacrylimidate], the melting point is 175 to 178 °C.

The molecule `O=S(=O)(C=CC(=Nc1ccccc1)Oc1ccccc1)c1ccccc1` [(99), Phenyl N-phenyl-3-(phenylsulfonyl)acrylimidate] registered a melting point of 110 to 116 °C.

In turn, `CC(C)(C)SC=CC(=Nc1ccccc1)Oc1ccccc1` [(140), Phenyl 3-(1,1-dimethylethylthio)-N-phenylacrylimidate] came in with a melting point of 134 to 136 °C.

Molecule `C(=CC(=Nc1ccccc1)OCc1ccccc1)Sc1ccccc1` [(60), Benzyl N-phenyl-3-(phenylthio)acrylimidate] came in with a melting point of 77 to 81 °C.

With `CN(C=CC(=Nc1ccccc1)Oc1ccccc1)c1ccccc1` [(132), Phenyl 3-(N′-methyl-N′-phenylamino)-N-phenylacrylimidate], the melting point lay within 130 to 132 °C.

The molecule `C(=CN1CCCCC1)C(=Nc1ccccc1)Oc1ccccc1` [(134), Phenyl N-phenyl-3-(piperidino)acrylimidate] yielded a melting point of 127 to 128 °C.

In the next data set the test system is Haemaphysalis longicornis. Nature of the data set: Test Example 11: filter paper bag contact test on ticks. It is filed as in vivo. Particulars: 48 h, 0.5 mg test compound on 5 cm×10 cm filter paper, after 2 days. As for the experimental part:
0.5 mg of the test compound was dissolved to […]. Onto one side of filter paper having 5 cm×10 cm, the solution was applied uniformly and then air-dried. Thereafter, the filter paper was folded in half and fixed by paper clips at the side to form bag like shape. Ten Haemaphysalis longicornis was put into the bag, and then the bag was closed with a paper clip. After 2 days, the number of dead insects was examined.
For orientation: mortality means the share of the test organisms that died. A high value points to a strong lethal effect. `Clc1ccc(SC(C=CSc2ccccc2)=Nc2ccccc2)cc1` [(2), 4-Chlorophenyl N-phenyl-3-(phenylthio)thioacrylimidate] gave a mortality at 0.5 mg/filter paper of 100%.

In turn, `Cc1ccc(N=C(C=CSc2ccc(Cl)cc2)SC2CCCCC2)cc1` [(472), Cyclohexyl 3-(4-chlorophenylthio)-N-(4-methylphenyl)thioacrylimidate] displayed a mortality at 0.5 mg/filter paper of 100%.

`Cc1ccc(N=C(C=CSc2ccccc2Cl)SCC(C)C)cc1` [(433), Isobutyl 3-(2-chlorophenylthio)-N-(4-methylphenyl)thioacrylimidate]: the mortality at 0.5 mg/filter paper was 100%.

`Clc1cccc(N=C(C=COc2ccccc2)Oc2ccccc2)c1` [(45), Phenyl N-(3-chlorophenyl)-3-(phenoxy)acrylimidate]: the mortality at 0.5 mg/filter paper came to 100%.

The molecule `C(=CC(=Nc1ccccc1)Sc1ccccc1)Sc1ccccc1` [(1), Phenyl N-phenyl-3-(phenylthio)thioacrylimidate] gave a mortality at 0.5 mg/filter paper of 100%.

On to `Cc1ccc(N=C(C=CSc2ccccc2F)SCC2CCCCC2)cc1` [(341), Cyclohexylmethyl 3-(2-fluorophenylthio)-N-(4-methylphenyl)-thioacrylimidate], for which the mortality at 0.5 mg/filter paper is 100%.

`Fc1ccc(N=C(C=CSc2ccccc2)Oc2ccccc2)cc1` [(50), Phenyl N-(4-fluorophenyl)-3-(phenylthio)acrylimidate] came in with a mortality at 0.5 mg/filter paper of 100%.

Consider `C=CCSC(C=CSc1ccccc1)=Nc1ccccc1` [(186), 2-Propenyl N-phenyl-3-(phenylthio)thioacrylimidate], for which the mortality at 0.5 mg/filter paper was found to be 100%.

On to `Cc1ccc(N=C(C=CSc2ccccc2)SC(C)(C)C)cc1` [(265), 1,1-Dimethylethyl N-(4-methylphenyl)-3-(phenylthio)thioacrylimidate], for which the mortality at 0.5 mg/filter paper was 100%.

The molecule `Fc1ccc(SC=CC(=Nc2ccccc2)SC2CCCCC2)cc1` [(469), Cyclohexyl 3-(4-fluorophenylthio)-N-(phenyl)thioacrylimidate] registered a mortality at 0.5 mg/filter paper of 100%.

For the molecule `FC(F)(F)Oc1ccc(N=C(C=COc2ccccc2)Oc2ccccc2)cc1` [(207), Phenyl N-(4-trifluoromethoxyphenyl)-3-phenoxyacrylimidate], the mortality at 0.5 mg/filter paper is 100%.

As for `Clc1ccccc1SC(C=CSc1ccccc1)=Nc1ccccc1` [(4), 2-Chlorophenyl N-phenyl-3-(phenylthio)thioacrylimidate], the mortality at 0.5 mg/filter paper came out at 100%.

As for `Cc1ccc(SC=CC(=Nc2ccccc2)Sc2ccccc2)cc1` [(130), Phenyl 3-(4-methylphenylthio)-N-(phenyl)thioacrylimidate], the mortality at 0.5 mg/filter paper was 100%.

In turn, `Fc1ccc(N=C(C=CSc2ccccc2)Sc2ccc(F)cc2)cc1` [(278), 4-Fluorophenyl N-(4-fluorophenyl)-3-(phenylthio)thioacrylimidate] displayed a mortality at 0.5 mg/filter paper of 100%.

`Cc1ccc(N=C(C=CSc2ccccc2)Oc2ccccc2)cc1` [(54), Phenyl N-(4-methylphenyl)-3-(phenylthio)acrylimidate]: the mortality at 0.5 mg/filter paper was determined as 100%.

The molecule `C#Cc1ccc(N=C(C=COc2ccccc2)Oc2ccccc2)cc1` [(156), Phenyl N-(4-ethynylphenyl)-3-(phenoxy)acrylimidate] displayed a mortality at 0.5 mg/filter paper of 100%.

`Cc1ccc(N=C(C=CSc2ccc(C)cc2)SCC(C)C)cc1` [(443), Isobutyl N-(4-methylphenyl)-3-(4-methylphenylthio)thioacrylimidate] showed a mortality at 0.5 mg/filter paper of 100%.

Turning to `Brc1ccc(SC=CC(=Nc2ccccc2)Oc2ccccc2)cc1` [(102), Phenyl 3-(4-bromophenylthio)-N-phenylacrylimidate], the mortality at 0.5 mg/filter paper stood at 100%.

For the molecule `Cc1ccc(N=C(C=CSc2ccccc2)SCC(C)C)cc1` [(321), 2-Methylpropyl N-(4-methylphenyl)-3-(phenylthio)thioacrylimidate], the mortality at 0.5 mg/filter paper was found to be 100%.

As to `Clc1cccc(SC(C=CSc2ccccc2)=Nc2ccccc2)c1` [(3), 3-Chlorophenyl N-phenyl-3-(phenylthio)thioacrylimidate], the mortality at 0.5 mg/filter paper was 100%.

`Clc1ccc(N=C(C=COc2ccccc2)Oc2ccccc2)cc1` [(43), Phenyl N-(4-chlorophenyl)-3-(phenoxy)acrylimidate]: the mortality at 0.5 mg/filter paper stood at 100%.

`Cc1ccc(N=C(C=CSc2ccc(Cl)cc2)SCC(C)C)cc1` [(435), Isobutyl 3-(4-chlorophenylthio)-N-(4-methylphenyl)thioacrylimidate] had a mortality at 0.5 mg/filter paper of 100%.

Molecule `Brc1ccc(N=C(C=COc2ccccc2)Oc2ccccc2)cc1` [(77), Phenyl N-(4-bromophenyl)-3-(phenoxy)acrylimidate] registered a mortality at 0.5 mg/filter paper of 100%.

`Fc1cccc(SC=CC(=Nc2ccccc2)Oc2ccccc2)c1` [(113), Phenyl 3-(3-fluorophenylthio)-N-phenylacrylimidate]: the mortality at 0.5 mg/filter paper is 100%.
